In PubChem BioAssay (NCI):
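Compound exposure: 48 hours, 5 concentrations, 96-well plates. TGI: concentration producing complete growth inhibition.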

Experiments:
Assay in all cases: growth of human tumour cells (NCI), 48 h
[1] = system: BT-549 breast
[2] = system: SF-295 CNS
[3] = system: CAKI-1 renal
[4] = system: SNB-19 CNS
[5] = system: OVCAR-4 ovarian
[6] = system: SF-268 CNS
[7] = system: MDA-N
[8] = system: HCT-15 colon
[9] = system: HCC-2998 colon
[10] = system: SK-MEL-5 melanoma
[11] = system: HCT-116 colon
[12] = system: SF-539 CNS
[13] = system: OVCAR-8 ovarian
[14] = system: A549 NSCLC
[15] = system: UACC-257 melanoma
[16] = system: MDA-MB-231 breast
[17] = system: KM12 colon
[18] = system: HOP-62 NSCLC
[19] = system: HT29 colon
[20] = system: SW-620 colon
[21] = system: K-562 leukemia
[22] = system: EKVX NSCLC
[23] = system: RXF 393 renal
[24] = system: OVCAR-5 ovarian
[25] = system: LOX IMVI melanoma
[26] = system: MCF7 breast
[27] = system: NCI/ADR-RES ovarian
[28] = system: SNB-75 CNS
[29] = system: OVCAR-3 ovarian
[30] = system: MALME-3M melanoma
[31] = system: IGROV1 ovarian
[32] = system: RPMI-8226 leukemia
[33] = system: PC-3 prostate
[34] = system: NCI-H226 lung
[35] = system: NCI-H460 lung
[36] = system: HS 578T breast
[37] = system: DU-145 prostate
[38] = system: SK-OV-3 ovarian
[39] = system: HOP-92 NSCLC
[40] = system: M14 melanoma
[41] = system: MOLT-4 leukemia
[42] = system: SR leukemia
[43] = system: UACC-62 melanoma
[44] = system: NCI-H522 lung
[45] = system: NCI-H23 lung
[46] = system: A498 renal
[47] = system: SK-MEL-28 melanoma
[48] = system: COLO 205 colon
[49] = system: MDA-MB-435
[50] = system: UO-31 renal
[51] = system: TK-10 renal
[52] = system: ACHN renal
[53] = system: SK-MEL-2 melanoma
[54] = system: 786-0 renal
[55] = system: CCRF-CEM leukemia
[56] = system: HL-60(TB) leukemia
[57] = system: U251 CNS
[58] = system: SN12C renal
[59] = system: T-47D breast

Structure (SMILES): NS(=O)(=O)c1ccc(NNc2c3ccccc3nc3c(C(=O)Nc4ccc(S(N)(=O)=O)cc4)cccc23)cc1
- TGI [1]: 54.7 µM
- TGI [2]: > 100 µM
- TGI [3]: > 100 µM
- TGI [4]: > 100 µM
- TGI [5]: 75.1 µM
- TGI [6]: 98.4 µM
- TGI [7]: > 100 µM
- TGI [8]: > 100 µM
- TGI [9]: 86.7 µM
- TGI [10]: > 100 µM
- TGI [11]: > 100 µM
- TGI [12]: > 100 µM
- TGI [13]: > 100 µM
- TGI [14]: > 100 µM
- TGI [15]: > 100 µM
- TGI [16]: > 100 µM
- TGI [17]: > 100 µM
- TGI [18]: > 100 µM
- TGI [19]: 72.4 µM
- TGI [20]: > 100 µM
- TGI [21]: 62.1 µM
- TGI [22]: > 100 µM
- TGI [23]: 64.5 µM
- TGI [24]: > 100 µM
- TGI [25]: 27.5 µM
- TGI [26]: > 100 µM
- TGI [27]: > 100 µM
- TGI [28]: > 100 µM
- TGI [29]: > 100 µM
- TGI [30]: 99.8 µM
- TGI [31]: > 100 µM
- TGI [32]: > 100 µM
- TGI [33]: > 100 µM
- TGI [34]: > 100 µM
- TGI [35]: > 100 µM
- TGI [36]: > 100 µM
- TGI [37]: > 100 µM
- TGI [38]: > 100 µM
- TGI [39]: 73.4 µM
- TGI [40]: > 100 µM
- TGI [41]: 49.6 µM
- TGI [42]: 57.9 µM
- TGI [43]: > 100 µM
- TGI [44]: 50.8 µM
- TGI [45]: > 100 µM
- TGI [46]: > 100 µM
- TGI [47]: > 100 µM
- TGI [48]: > 100 µM
- TGI [49]: > 100 µM
- TGI [50]: > 100 µM
- TGI [51]: > 100 µM
- TGI [52]: > 100 µM
- TGI [53]: 54.4 µM
- TGI [54]: > 100 µM
- TGI [55]: 80.3 µM
- TGI [56]: 68.9 µM
- TGI [57]: 61 µM
- TGI [58]: > 100 µM
- TGI [59]: > 100 µM
